{"source": "patent US12150927B2", "about": "“Use of cannabidiolic acid in the treatment of autism spectrum disorder and associated disorders” (GW Research Limited, priority 2016, dated 2024)", "key": {"[1]": {"test_system": "offspring of VPA-exposed rats", "test": "Sociability and preference for social novelty, 3-chamber apparatus, rat VPA model", "format": "in vivo, Sprague-Dawley rats", "protocol": "(§1) Pregnant Sprague-Dawley rats (Charles River, Calco, Italy), received a single intraperitoneal injection of 500 mg/kg sodium valproate on the 12.5 day after conception, and control females were injected with physiological saline at the same time. Sodium valproate (Sigma Aldrich, Milan, IT) was dissolved in saline at a concentration of 250 mg/ml.\n(§2) CBDA was dissolved in ethanol, cremophor and saline (1:1:18). Symptomatic treatment with CBDA at doses of 2 and 20 mg/kg/day i.p. was performed starting from PND 34 (early adolescence) till 56 (early adulthood), both in male and female offspring of dams injected with VPA 500 mg/kg (or vehicle) on day 12.5 after conception. At PND 56, a series of behavioural tests was performed in order to assess the effect of chronic CBDA on sociability, social novelty, short-term memory, locomotion and stereotyped/repetitive behaviours.\nSociability and preference for social novelty: These behaviours were investigated in a 3-chamber apparatus which allows for the measurement of social approach and social preference. In brief, animals were placed into a novel arena (80 cm×31.5 cm) composed of three communicating chambers separated by Perspex walls with central openings allowing access to all chambers for 5 min.\nFollowing this acclimatisation period, animals were briefly confined to the central chamber while an unfamiliar rat confined in a small wire cage was placed in one of the outer chambers. An identical empty wire cage was placed in the other chamber. […] Time spent engaging in investigatory behaviour with the rat was evaluated with the aid of Anymaze program (Ugo Basile, Italy) in order to examine social approach.\nTo investigate the preference for social novelty, a novel unfamiliar rat was then placed in the empty cage and the test animal was then allowed to explore the arena/chambers for a further 5 min. Time spent engaging in investigatory behaviour with the novel unfamiliar rat was evaluated with the aid of Anymaze program (Ugo Basile, Italy) in order to examine preference for social novelty."}, "VPA rats": {"test_system": "VPA rats", "test": "Short-term memory, novel object recognition test, rat VPA model", "format": "in vivo, Sprague-Dawley rats", "conditions": "FIG. 2C", "protocol": "as §1, §2\nShort-term memory: The experimental apparatus used for the object recognition test was an open-field box (43×43×32 cm) made of Plexiglas, placed in a dimly illuminated room. The experiment was performed and analysed as previously described (Zamberletti et al, 2014). Animals performed each test individually.\nEach animal was placed in the arena and allowed to explore two identical previously unseen objects for 5 minutes (familiarization phase). After an inter-trial interval of 3 minutes one of the two familiar objects was replaced by a novel, previously unseen object and rats were returned to the arena for the 5-minute test phase. During the test phase the time spent exploring the familiar object (Ef) and the new object (En) was videotaped and recorded separately by two observers blind to the treatment groups and the discrimination index was calculated as follows: [(En−Ef)/(En+Ef)]×100."}, "Fmr1 KO mice": {"test_system": "Fmr1 KO mice", "test": "Novel object recognition task, mouse model of fragile X syndrome", "format": "in vivo", "protocol": "Fmr1 KO mice and wild type mice were obtained and housed four per cage in a temperature of 21° C.±1° C. and humidity of 55%±10% controlled environment. Food and water were available ad libitum. All experiments were performed during the light phase of a 12 hour light/dark cycle (08:00 to 20:00). Animals were handled for one week before the start of experiments. All behavioural tests were performed by researchers blind to the different experimental groups.\nOn day one mice were habituated for 10 minutes to the empty V-maze in which the task was to be performed. On the second day the mice went back to the maze for 10 minutes which contained two identical objects at the end of each corridor in the V-maze.\nThe following day the mice were placed again in the same maze for a further 10 minutes but one of the familiar objects was replaced for a novel object. The total time spent exploring the novel and familiar object was recorded. A discrimination index was calculated as the difference between the time spent exploring the novel and familiar object divided by the total time exploring the two objects. A high discrimination index (0.3-0.5) is considered to reflect memory retention for the familiar object.\nAdult mice […] were treated either acutely with one dose of 20 mg/kg CBDA on PND 21 for 7 consecutive days. Mice were evaluated in the novel object recognition task after the first and sixth day of CBDA administration."}, "Ube3am-/p+ (AS) mice [2]": {"test_system": "Ube3am-/p+ (AS) mice", "test": "Rotarod test, mouse model of Angelman syndrome", "format": "in vivo", "conditions": "chronic treatment (30 days) CBDA 20 mg/kg i.p., 10 weeks, vs AS vehicle, FIG. 13", "protocol": "(§3) Heterozygous mice with maternal deficiency of Ube3A (Ube3am−/p+) and wild type (Ube3am+/p+) were purchased from The Jackson Laboratory (Jackson code: B6.129S7-Ube3a tm1Alb/J) and maintained in a C57BL/6 background.\nDrugs were dissolved in 1:1:18 ethanol:cremophor:0.9% saline, for intraperitoneal (i.p.) administration. […] CBDA was administered at 20 mg/kg.\nRotarod: The rotarod test assesses balance and motor coordination of mice. Mice have been measured for the time (in seconds) of equilibrium before falling on a rotary cylinder by a magnet that, activated from the fall of the mouse on the plate, allows to record the time of permanence on the cylinder. […] The animals were analysed by 2 separate tests at 1-h interval in the same day."}, "Ube3am-/p+ (AS) mice [3]": {"test_system": "Ube3am-/p+ (AS) mice", "test": "Tail suspension test, mouse model of Angelman syndrome", "format": "in vivo", "conditions": "CBDA 20 mg/kg i.p., vs AS vehicle, FIG. 15", "protocol": "as §3\nDrugs were dissolved in 1:1:18 ethanol:cremophor:0.9% saline, for intraperitoneal (i.p.) administration. Drug treatment was performed daily for 35 days. CBDA was administered at 20 mg/kg.\nTail suspension: The tail suspension test assesses depressive-like behaviour in mice. Mice were individually suspended by the tail on a horizontal bar (50 cm from floor) using adhesive tape placed approximately 4 cm from the tip of the tail. The duration of immobility was recorded in seconds over a period of 6 minutes by a time recorder. Immobility time was defined as the absence of escape-oriented behaviour."}}}
{"smiles": "C=C(C)[C@@H]1CCC(C)=C[C@H]1c1c(O)cc(CCCCC)c(C(=O)O)c1O", "note": "[CBDA, Cannabidiolic acid]", "values": [{"measurement": "preference index", "setting": "[1]; CBDA 20 mg/kg/day i.p. PND 34-56, VPA rats, FIG. 1C", "value": "significantly counteracted the impairment in sociability"}, {"measurement": "social novelty preference", "setting": "[1]; CBDA 20 mg/kg/day i.p. PND 34-56, male VPA rats, FIG. 1A", "value": "statistically significant effect in males on restoration of social novelty preference"}, {"measurement": "sociability", "setting": "[1]; CBDA at both doses (2 and 20 mg/kg/day i.p.) PND 34-56, VPA rats, FIG. 1B", "value": "significantly reduced the impairment in sociability"}, {"measurement": "short-term memory (discrimination index)", "setting": "VPA rats; CBDA 20 mg/kg/day i.p., female VPA rats", "value": "able to reverse the short-term memory deficit"}, {"measurement": "short-term memory (discrimination index)", "setting": "VPA rats; CBDA 2 and 20 mg/kg/day i.p., male VPA rats", "value": "completely and significantly reversed the short-term memory deficit"}, {"measurement": "recognition memory per se", "setting": "VPA rats; CBDA given to vehicle-treated (non VPA) rats", "value": "without affecting per se recognition memory"}, {"measurement": "discrimination index level", "setting": "Fmr1 KO mice; Fmr1 KO mice treated with CBDA over 7 days", "value": 0.32}, {"measurement": "discrimination index", "setting": "Fmr1 KO mice; acute treatment, CBDA 20 mg/kg, Fmr1 KO mice vs KO vehicle, FIG. 3", "value": "increase the discrimination index slightly over that of the knockout mice administered vehicle, however this was not significant"}, {"measurement": "discrimination index (effect vs vehicle)", "setting": "Fmr1 KO mice; chronic treatment, once daily for 7 days, CBDA 20 mg/kg, Fmr1 KO mice, FIG. 4", "value": "statistically significant increase in the discrimination index"}, {"measurement": "latency to fall (rotarod)", "setting": "Ube3am-/p+ (AS) mice [2]", "value": "significantly reduced latency to fall"}, {"measurement": "duration of immobility time", "setting": "Ube3am-/p+ (AS) mice [3]", "value": "significantly reduced the duration of immobility time"}]}
